Assay results published in patent publication US10081662B2, “Modified relaxin B chain peptides” (The Florey Institute of Neuroscience and Mental Health, priority 2014, dated 2018).

Legend:
[1] = dose printed as 0.5 mg/mg/day; Samuel et al. 2003; cited from earlier work
[2] = test system: mouse model of isoproterenol (ISO) induced cardiac fibrosis; assay: Mouse model of isoproterenol-induced cardiomyopathy (cardiac fibrosis); type: in vivo; conditions: 129SV mice, 14 days, s.c. minipump; relative to isoproterenol treatment
Source text: (§1) Seven to eight-week old male 129SV mice (which are sensitive to tissue injury and fibrosis) and age-matched female Balb/c mice (which are sensitive to changes in airway hyperresponsiveness) were used for the induction of isoproterenol-induced cardiomyopathy and ovalbumin-induced chronic allergic airways disease, respectively. 16 five week-old male C57BL/6 mice were used in the induction of prostate cancer growth. All animals were obtained from Monash Animal Services (Monash University, Clayton, Victoria, Australia) and housed under standard conditions (maintained on an 12 h light-12 h dark lighting cycle with free access to food and water) in the Department of Pharmacology Animal Room at Monash University.
(§2) The mid zone of the male mouse heart and largest lung lobe from female Balb/c mice were fixed in 10% neutral buffered formalin for 24-48 h before being processed and embedded routinely in paraffin wax. Representative sections of tissue, 3-5 um each, were taken and stained with either picrosirius red (Samuel et al. 2011 Lab Invest 91, 675-690) for the detection of interstitial collagen or Masson's trichrome (Royce et al, 2009, Endocrinology 150, 2692-2699) for the detection of subepithelial basement membrane collagen deposition).
(§3) Changes in picrosirius-red stained interstitial collagen or epithelial thickness and subepithelial collagen (fibrosis) around the airway lumen from Masson's trichrome-stained sections; which were all captured (at ×20 magnification) using a SPOT digital camera (Q Imaging, Burnaby, BC, Canada) and analysed with Image J 1.3 software (National Institutes of Health, Bethesda, Md.). Four to five fields per mid zone of the heart or 4-5 airways (of 150-350 μm in diameter) per mouse were assessed. Epithelial thickness and subepithelial collagen regions were traced with a digital pen and the thickness of each region calculated by the imaging software. Results were expressed as mean thickness ([…]) of the 4-5 airways sampled.
The apical region of the heart or second largest lung lobe from each mouse was treated as described previously (Samuel C S, et at., 2003, FASEB J 17, 121-123; Royce et at. 2009, Endocrinology 150, 2692-2699) for the determination of hydroxyproline content. Hydroxyproline values were estimated based on a standard curve constructed with serial dilutions of a 0.1 mg/mL stock of trans-4-hydroxyproline-L-proline (Sigma-Aldrich). Hydroxyproline values were then converted to collagen content as detailed previously (Samuel CS, et al. 2004. Endocrinology 145, 4125-4133) and, in turn, divided by the dry weight of each corresponding left ventricular or lung tissue assessed to yield collagen concentration (a measure of fibrosis). […]

[3] = Solubility of relaxin B chain peptides in aqueous solution; conditions: aqueous solution
[4] = test system: RM1 mouse prostate tumour cells; assay: Prostate tumour growth after injection of RM1 cells into prostates of C57BL/6 mice; type: in vivo; conditions: day 10 after RM1 cells, s.c. mini-pump from day 2, H2 relaxin 0.15, B7-33 C11.23S 0.075 mg/kg/day, vs untreated
Source text: as §1
H2 relaxin can induce prostate and other tumour growth. To measure the effect of B7-33 C11.23S on tumour growth, 16 five week-old male C57BL/6 mice (obtained from Monash Animal Services) were injected with 5000 RM1 (mouse prostate tumor) cells into their prostates to induce tumor growth. One sub-group of mice n=5) was left untreated until day 10 post-RM1 cell administration. […]

[5] = test system: rat model of myocardial infarction; assay: Rat model of myocardial infarction-induced heart failure; type: in vivo; conditions: vs vehicle
Procedure: Adult male Sprague-Dawley rats weighing 250-320 g were obtained from Animal Resources Centre, Perth, Wash., Australia. The rats were group housed in a constant temperature of 22±1° C. and a relative humidity of 50-60% under a controlled light-dark cycle of 12 hours. Rats were given access to standard laboratory rat chow and drinking water ad libitum.
Heart failure was induced as previously described (Ruchaya et al., 2014, Exp Physiol 99, 111-122). Breifly, to induce heart failure, rats were anaesthetised with an intramuscular injection of ketamine (60 mg/kg) and medetomide hydrochloride ([…]). A left sided thoracotomy through an opening between the fourth and fifth rib was performed, the heart was exteriorised and the left anterior descending coronary artery was ligated. Anaesthesia was reversed with antipamezole hydrocholide (1 mg/kg). Penicillin (1000 U) and buprenorphine (0.05 mg/kg) was administered to aid post-operative recovery. Animals were left to recover from the surgery under a heating source. Rats were individually housed after the surgery.
Eight weeks after myocardial infarction surgery, rats were randomly assigned to 3 groups (vehicle, H2 and B7-33), re-anaesthetised (2-3% isoflurane) and an osmotic mini-pump (model 2ML4, Alzet, Cupertino, Calif.) implanted intraperitoneally. Vehicle (saline), native H2 relaxin (0.5 mg/kg/day) or B7-33 C11.23S (0.5 mg/kg/day) was continuously administered for 28 days. At the conclusion of treatment, rats were anaesthetized (sodium pentobarbitone, 60 mg/kg i.p.) and the left ventricular end-diastolic pressure determined prior to decapitation and removal of the heart for histological analysis.

[6] = test system: mouse model of OVA-induced chronic allergic airway disease; assay: Mouse model of OVA-induced chronic allergic airway disease; type: in vivo; conditions: Balb/c mice
Source text: as §1
Twenty-four hours after the last vehicle/drug administration, methacholine-induced airway reactivity was assessed by invasive plethysmography as described before (Locke et al. 2007, Am J Respir Mol Biol 36, 625-632; Royce et al. 2009, Endocrinology 150, 2692-2699). Mice were anaesthetized intraperitoneally with 200 μg/g ketamine and 10 μg/g xylazine. Tracheotomy was performed using an 18-gauge tracheotomy tube and jugular vein cannulated with a 0.61 9 0.28 mm polyethylene tube (Microtube Extrusions, North Rocks, NSW, Australia), Mice were then placed in a plethysmograph chamber (Buxco Research Systems, Wilmington, N.C., USA) where increasing concentrations of acetyl-β-methacholine (from 31.25 μg/kg to 500 μg/kg) were delivered intravenously in five doses. After every dose, airway resistance and compliance were measured (Biosystem XA version 2.7.9; Buxco Electronics Inc, Wilmington, N.C., USA). The change in airway resistance calculated by the maximal resistance after each dose minus baseline resistance (phosphate buffered saline alone) was plotted against each dose of methacholine evaluated.
as §2, §3
The apical region of the heart or second largest lung lobe from each mouse was treated as described previously (Samuel C S, et at., 2003, FASEB J 17, 121-123; Royce et at. 2009, Endocrinology 150, 2692-2699) for the determination of hydroxyproline content. Hydroxyproline values were estimated based on a standard curve constructed with serial dilutions of a 0.1 mg/mL stock of trans-4-hydroxyproline-L-proline (Sigma-Aldrich). Hydroxyproline values were then converted to collagen content as detailed previously (Samuel CS, et al. 2004. Endocrinology 145, 4125-4133) and, in turn, divided by the dry weight of each corresponding left ventricular or lung tissue assessed to yield collagen concentration (a measure of fibrosis).
The inventors also tested the fibrosis preventing activity of B7-33 C11.23S in a model of chronic allergic airway disease (AAD). […]

H2 relaxin: Native human relaxin-2: heterodimer of A chain (24 residues) and B1-29 B chain with three disulfide bonds
Circulating levels [1]: 20 to 40 ng/mL | Percentage of interstitial collagen in the left ventricle (picrosirius red) [2]: significantly reduced | Total left ventricular collagen concentration (hydroxyproline analysis) [2]: significantly reduced | Aqueous solubility (in words) [3]: very soluble | Prostate tumour size [4]: significantly increased tumour size | Percentage of collagen in the interstitial area of the left ventricle ([5]; 0.5 mg/kg/day i.p. mini-pump for 28 days from 8 weeks after MI): significant reduction | Left ventricular end-diastolic pressure (LVEDP) ([5]; 12 weeks after myocardial infarction): reduced | Airway hyper-responsiveness (change in airway resistance to methacholine) ([6]; OVA-induced increase, invasive plethysmography, FIG. 8D): attenuated | Mean airway epithelial thickness ([6]; compared to OVA treatment, FIG. 8B): significantly reduced | Total lung collagen content (hydroxyproline analysis) ([6]; relative to OVA treatment, FIG. 8C): normalised
